Laboratory results taken from patent US10722520B2, “Heterocyclic compounds and their use in preventing or treating bacterial infections” (MUTABILIS, priority 2016, dated 2020).
pIC50: −log10 of the molar value.

Columns and labels:
OXA-15 = OXA-15 (Pseudomonas aeruginosa, UniProt Q51574); assay: biochemical
OXA-1 = OXA-1 (Escherichia coli, UniProt P13661)
TEM-1 = TEM-1 (Escherichia coli, UniProt P62593)
E. coli RGN238 = assay: microbe, parasite or virus in culture; type: cell-based; settings: Escherichia coli, RGN238, read-out: MIC compounds of the invention alone
Protocol: Log phase bacterial suspensions were adjusted to a final density of 5×10^5 cfu/mL in cation-adjusted Mueller-Hinton broth (Becton-Dickinson) and added to each well (98 μL). Microplates were incubated for 16-20 h at 35° C. in ambient air. The MIC of the compounds was defined as the lowest concentration of said compounds that prevented bacterial growth as read by visual inspection.

OXA-48 = OXA-48 (Klebsiella pneumoniae, UniProt Q6XEC0)
SHV-1 = SHV-1 (Klebsiella pneumoniae, UniProt P0AD64)
CTX-M-15 = CTX-M-15 (Escherichia coli, UniProt Q9EXV5)
K. pneumoniae 160143 = assay: MIC of compound alone, broth microdilution; type: cell-based; settings: Klebsiella pneumoniae; strain 160143: K. pneumoniae; TEM-1, SHV-1, CTX-M-15, KPC-2, OXA-1; read-out: MIC compounds of the invention alone
Summary of the method: (§1)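 Visual end point: lowest concentration that blocked growth. Conditions: cation-adjusted Mueller-Hinton broth, 5×10^5 cfu/mL final inoculum of log-phase bacteria, 16-20 h, 35° C, ambient atmosphere.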

K. oxytoca UFR21 = assay: MIC of compound alone, broth microdilution; type: cell-based; settings: Klebsiella oxytoca; strain UFR21: K. oxytoca; TEM-1, CTX-M-15, OXA-48; read-out: MIC compounds of the invention alone
Summary of the method: as §1

E. coli 190317 = assay: MIC of compound alone, broth microdilution; type: cell-based; settings: Escherichia coli; strain 190317: E. coli; TEM-1, SHV-12, CTX-M-15, OXA-1; read-out: MIC compounds of the invention alone
Summary of the method: as §1

E. cloacae UFR70 = assay: MIC of compound alone, broth microdilution; type: cell-based; settings: Enterobacter cloacae; strain UFR70: E. cloacae; TEM-1, CTX-M-15, CMY-2, OXA-1, Porin loss; read-out: MIC compounds of the invention alone
Summary of the method: as §1

E. coli UFR18 = assay: MIC of compound alone, broth microdilution; type: cell-based; settings: Escherichia coli; strain UFR18: E. coli; CTX-M-15, OXA-204; read-out: MIC compounds of the invention alone
Summary of the method: as §1

P. aeruginosa CIP107051 = assay: MIC of compound alone, broth microdilution; type: cell-based; settings: Pseudomonas aeruginosa; strain CIP107051: P. aeruginosa; TEM-24; read-out: MIC compounds of the invention alone
Summary of the method: as §1

E. coli UFR74 = assay: MIC of compound alone, broth microdilution; type: cell-based; settings: Escherichia coli; strain UFR74: E. coli; SHV-1, DHA-1; read-out: MIC compounds of the invention alone
Summary of the method: as §1

E. coli UFR41 = assay: MIC of compound alone, broth microdilution; type: cell-based; settings: Escherichia coli; strain UFR41: E. coli; TEM-1, CTX-M-15, CMY-2, OXA-1, NDM-4; read-out: MIC compounds of the invention alone
Summary of the method: as §1

E. cloacae UFR85 = assay: MIC of compound alone, broth microdilution; type: cell-based; settings: Enterobacter cloacae; strain UFR85: E. cloacae; TEM-1, CTX-M-15, AmpC; read-out: MIC compounds of the invention alone
Summary of the method: as §1

E. coli 131119 = assay: MIC of compound alone, broth microdilution; type: cell-based; settings: Escherichia coli; strain 131119: E. coli; TEM-1, OXA-48; read-out: MIC compounds of the invention alone
Summary of the method: as §1

K. pneumoniae UFR77 = assay: MIC of compound alone, broth microdilution; type: cell-based; settings: Klebsiella pneumoniae; strain UFR77: K. pneumoniae; CMY-2; read-out: MIC compounds of the invention alone
Summary of the method: as §1

K. pneumoniae 6299 = assay: MIC of compound alone, broth microdilution; type: cell-based; settings: Klebsiella pneumoniae; strain 6299: K. pneumoniae; TEM-1, SHV-11, OXA-163; read-out: MIC compounds of the invention alone
Summary of the method: as §1

K. pneumoniae 200047 = assay: MIC of compound alone, broth microdilution; type: cell-based; settings: Klebsiella pneumoniae; strain 200047: K. pneumoniae; TEM-1, SHV-32, CTX-M-15, OXA-1; read-out: MIC compounds of the invention alone
Summary of the method: as §1

E. coli UFR39 = assay: MIC of compound alone, broth microdilution; type: cell-based; settings: Escherichia coli, UFR39, read-out: MIC compounds of the invention alone
Summary of the method: as §1

E. coli UFR61O = assay: MIC of compound alone, broth microdilution; type: cell-based; settings: Escherichia coli; strain UFR61O: E. coli; TEM-1, KPC-2; read-out: MIC compounds of the invention alone
Summary of the method: as §1

E. coli UFR32 = assay: MIC of compound alone, broth microdilution; type: cell-based; settings: Escherichia coli; strain UFR32: E. coli; TEM-1, VEB-1, OXA-10; read-out: MIC compounds of the invention alone
Summary of the method: as §1

OXA-11 = OXA-11 (Pseudomonas aeruginosa, UniProt Q06778)
KPC-2 = KPC-2 (Klebsiella pneumoniae, UniProt Q9F663)
CMY-37 = CMY-37 (Citrobacter freundii, UniProt P05193); settings: read-out: IC50 β-lactamase CMY-37
AmpC (P99) = AmpC (P99) (Enterobacter cloacae, UniProt P05364); assay: biochemical

SMILES | pIC50 (OXA-15) | pIC50 (OXA-1) | pIC50 (TEM-1) | MIC (E. coli RGN238) [µg/mL] | pIC50 (OXA-48) | pIC50 (SHV-1) | pIC50 (CTX-M-15) | MIC (K. pneumoniae 160143) [µg/mL] | MIC (K. oxytoca UFR21) [µg/mL] | MIC (E. coli 190317) [µg/mL] | MIC (E. cloacae UFR70) [µg/mL] | MIC (E. coli UFR18) [µg/mL] | MIC (P. aeruginosa CIP107051) [µg/mL] | MIC (E. coli UFR74) [µg/mL] | MIC (E. coli UFR41) [µg/mL] | MIC (E. cloacae UFR85) [µg/mL] | MIC (E. coli 131119) [µg/mL] | MIC (K. pneumoniae UFR77) [µg/mL] | MIC (K. pneumoniae 6299) [µg/mL] | MIC (K. pneumoniae 200047) [µg/mL] | other results
O=C1N2CC(n3nccn3)=CC(C2)N1OS(=O)(=O)O (stereo not shown) [Example 3, sodium [7-oxo-3-(triazol-2-yl)-1,6-diazabicyclo[3.2.1]oct-3-en-6-yl]sulfate] | 6.72 | 6.70 | 9.14 | 2 | 8.80 | 8.01 | 8.68 | 4 | 8 | 2 | 4 | 2 | > 32 | 8 | 16 | 4 | 1 | 4 | 16 | 4 | MIC (E. coli UFR39): 8 µg/mL; MIC (E. coli UFR61O): 8 µg/mL; MIC (E. coli UFR32): 2 µg/mL; pIC50 (OXA-11): 7.07; pIC50 (KPC-2): 7.92
O=C1N2CC(n3cncn3)=CC(C2)N1OS(=O)(=O)[O-].[Na+] (stereo not shown) [Example 5, sodium [7-oxo-3-(1,2,4-triazol-1-yl)-1,6-diazabicyclo[3.2.1]oct-3-en-6-yl]sulfate] | 7.57 | 7.31 | 9.10 | 2 | 9.35 | 8.36 | 9.18 | 2 | 4 | 1 | 2 | 2 | > 32 | 4 | 4 | 4 | 2 | 4 | 4 | 2 | pIC50 (CMY-37): 7.44; MIC (E. coli UFR39): 2 µg/mL; MIC (E. coli UFR61O): 8 µg/mL; MIC (E. coli UFR32): 2 µg/mL; pIC50 (AmpC (P99)): 7.80; pIC50 (OXA-11): 7.85; pIC50 (KPC-2): 8.52
